Assay in all cases: cell-based
The target in one assay is hNav1.5 (Homo sapiens, UniProt Q14524). As to conditions: IonWorks Quattro, use-dependent block, hNav1.5; read-out: IWQ Use Nav1.5. For orientation: In patch-clamp work, channel activity is measured electrically.
For a further assay, the target named is hNav1.7 (Homo sapiens, UniProt Q15858). In kind it is cell-based. As to conditions: IonWorks Quattro, use-dependent block, hNav1.7; read-out: IWQ Use Nav1.7.
Another assay has as its target hNav1.3 (Homo sapiens, UniProt Q9NY46). As to conditions: IonWorks Quattro, use-dependent block, hNav1.3; read-out: IWQ Use Nav1.3.

Among the data in patent US9340590B2 (priority 2011, dated 2016) are IC50 values, retold here.

Positions of bridges follow the written chain, without caps; N, C: chain ends. Residues, ends and D or L forms follow the SMILES beside them.

Sequence of hNav1.3 (Q9NY46 whole entry, looked up): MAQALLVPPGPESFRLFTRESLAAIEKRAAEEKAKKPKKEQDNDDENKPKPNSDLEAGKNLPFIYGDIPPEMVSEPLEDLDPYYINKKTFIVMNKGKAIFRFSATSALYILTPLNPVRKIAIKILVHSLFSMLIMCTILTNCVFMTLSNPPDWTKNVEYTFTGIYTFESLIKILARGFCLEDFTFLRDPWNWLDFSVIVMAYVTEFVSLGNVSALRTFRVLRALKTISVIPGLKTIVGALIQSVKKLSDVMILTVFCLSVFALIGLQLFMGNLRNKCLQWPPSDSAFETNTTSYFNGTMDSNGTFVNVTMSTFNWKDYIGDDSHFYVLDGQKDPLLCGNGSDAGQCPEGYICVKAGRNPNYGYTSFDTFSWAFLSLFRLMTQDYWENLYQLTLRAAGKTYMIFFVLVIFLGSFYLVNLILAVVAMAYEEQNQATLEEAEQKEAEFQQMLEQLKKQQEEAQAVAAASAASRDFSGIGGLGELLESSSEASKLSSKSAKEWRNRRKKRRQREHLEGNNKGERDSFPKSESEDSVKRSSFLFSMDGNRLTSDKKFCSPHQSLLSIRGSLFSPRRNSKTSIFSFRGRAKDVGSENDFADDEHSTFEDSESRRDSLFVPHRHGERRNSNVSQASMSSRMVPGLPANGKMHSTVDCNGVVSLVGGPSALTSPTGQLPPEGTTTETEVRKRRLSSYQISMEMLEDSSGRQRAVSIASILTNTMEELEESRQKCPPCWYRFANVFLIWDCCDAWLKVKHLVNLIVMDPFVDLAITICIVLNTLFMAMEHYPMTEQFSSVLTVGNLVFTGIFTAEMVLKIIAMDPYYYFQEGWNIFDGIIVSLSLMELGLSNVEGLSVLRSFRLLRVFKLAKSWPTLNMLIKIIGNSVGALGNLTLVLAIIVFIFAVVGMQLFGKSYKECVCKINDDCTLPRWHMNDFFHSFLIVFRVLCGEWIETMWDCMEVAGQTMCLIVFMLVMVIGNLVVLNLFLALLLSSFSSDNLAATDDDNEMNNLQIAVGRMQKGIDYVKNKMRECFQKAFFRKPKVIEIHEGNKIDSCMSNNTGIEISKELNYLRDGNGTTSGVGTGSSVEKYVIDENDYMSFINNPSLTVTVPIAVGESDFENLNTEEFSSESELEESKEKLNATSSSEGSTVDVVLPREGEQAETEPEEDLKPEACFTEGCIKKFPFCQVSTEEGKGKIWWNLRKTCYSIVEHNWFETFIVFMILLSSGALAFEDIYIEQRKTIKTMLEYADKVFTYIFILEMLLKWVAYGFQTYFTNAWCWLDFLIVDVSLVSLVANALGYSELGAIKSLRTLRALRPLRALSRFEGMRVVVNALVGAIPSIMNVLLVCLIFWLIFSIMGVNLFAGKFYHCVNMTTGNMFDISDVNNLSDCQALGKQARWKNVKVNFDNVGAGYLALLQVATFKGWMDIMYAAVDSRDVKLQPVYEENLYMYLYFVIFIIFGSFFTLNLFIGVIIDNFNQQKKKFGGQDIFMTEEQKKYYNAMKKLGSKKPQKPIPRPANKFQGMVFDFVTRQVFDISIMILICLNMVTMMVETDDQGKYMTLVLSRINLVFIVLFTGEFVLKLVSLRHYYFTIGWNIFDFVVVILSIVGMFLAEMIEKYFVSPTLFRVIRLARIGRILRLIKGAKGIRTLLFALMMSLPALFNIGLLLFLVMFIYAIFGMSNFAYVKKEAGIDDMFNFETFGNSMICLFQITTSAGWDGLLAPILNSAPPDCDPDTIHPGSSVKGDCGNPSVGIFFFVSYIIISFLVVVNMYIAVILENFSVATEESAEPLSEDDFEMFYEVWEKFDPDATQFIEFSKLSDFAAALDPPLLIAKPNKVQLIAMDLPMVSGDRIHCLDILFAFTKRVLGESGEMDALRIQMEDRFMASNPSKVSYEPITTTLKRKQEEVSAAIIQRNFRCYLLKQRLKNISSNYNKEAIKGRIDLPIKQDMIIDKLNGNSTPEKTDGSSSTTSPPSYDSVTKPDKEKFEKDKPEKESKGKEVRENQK
Sequence of hNav1.7 (Q15858 whole entry, looked up): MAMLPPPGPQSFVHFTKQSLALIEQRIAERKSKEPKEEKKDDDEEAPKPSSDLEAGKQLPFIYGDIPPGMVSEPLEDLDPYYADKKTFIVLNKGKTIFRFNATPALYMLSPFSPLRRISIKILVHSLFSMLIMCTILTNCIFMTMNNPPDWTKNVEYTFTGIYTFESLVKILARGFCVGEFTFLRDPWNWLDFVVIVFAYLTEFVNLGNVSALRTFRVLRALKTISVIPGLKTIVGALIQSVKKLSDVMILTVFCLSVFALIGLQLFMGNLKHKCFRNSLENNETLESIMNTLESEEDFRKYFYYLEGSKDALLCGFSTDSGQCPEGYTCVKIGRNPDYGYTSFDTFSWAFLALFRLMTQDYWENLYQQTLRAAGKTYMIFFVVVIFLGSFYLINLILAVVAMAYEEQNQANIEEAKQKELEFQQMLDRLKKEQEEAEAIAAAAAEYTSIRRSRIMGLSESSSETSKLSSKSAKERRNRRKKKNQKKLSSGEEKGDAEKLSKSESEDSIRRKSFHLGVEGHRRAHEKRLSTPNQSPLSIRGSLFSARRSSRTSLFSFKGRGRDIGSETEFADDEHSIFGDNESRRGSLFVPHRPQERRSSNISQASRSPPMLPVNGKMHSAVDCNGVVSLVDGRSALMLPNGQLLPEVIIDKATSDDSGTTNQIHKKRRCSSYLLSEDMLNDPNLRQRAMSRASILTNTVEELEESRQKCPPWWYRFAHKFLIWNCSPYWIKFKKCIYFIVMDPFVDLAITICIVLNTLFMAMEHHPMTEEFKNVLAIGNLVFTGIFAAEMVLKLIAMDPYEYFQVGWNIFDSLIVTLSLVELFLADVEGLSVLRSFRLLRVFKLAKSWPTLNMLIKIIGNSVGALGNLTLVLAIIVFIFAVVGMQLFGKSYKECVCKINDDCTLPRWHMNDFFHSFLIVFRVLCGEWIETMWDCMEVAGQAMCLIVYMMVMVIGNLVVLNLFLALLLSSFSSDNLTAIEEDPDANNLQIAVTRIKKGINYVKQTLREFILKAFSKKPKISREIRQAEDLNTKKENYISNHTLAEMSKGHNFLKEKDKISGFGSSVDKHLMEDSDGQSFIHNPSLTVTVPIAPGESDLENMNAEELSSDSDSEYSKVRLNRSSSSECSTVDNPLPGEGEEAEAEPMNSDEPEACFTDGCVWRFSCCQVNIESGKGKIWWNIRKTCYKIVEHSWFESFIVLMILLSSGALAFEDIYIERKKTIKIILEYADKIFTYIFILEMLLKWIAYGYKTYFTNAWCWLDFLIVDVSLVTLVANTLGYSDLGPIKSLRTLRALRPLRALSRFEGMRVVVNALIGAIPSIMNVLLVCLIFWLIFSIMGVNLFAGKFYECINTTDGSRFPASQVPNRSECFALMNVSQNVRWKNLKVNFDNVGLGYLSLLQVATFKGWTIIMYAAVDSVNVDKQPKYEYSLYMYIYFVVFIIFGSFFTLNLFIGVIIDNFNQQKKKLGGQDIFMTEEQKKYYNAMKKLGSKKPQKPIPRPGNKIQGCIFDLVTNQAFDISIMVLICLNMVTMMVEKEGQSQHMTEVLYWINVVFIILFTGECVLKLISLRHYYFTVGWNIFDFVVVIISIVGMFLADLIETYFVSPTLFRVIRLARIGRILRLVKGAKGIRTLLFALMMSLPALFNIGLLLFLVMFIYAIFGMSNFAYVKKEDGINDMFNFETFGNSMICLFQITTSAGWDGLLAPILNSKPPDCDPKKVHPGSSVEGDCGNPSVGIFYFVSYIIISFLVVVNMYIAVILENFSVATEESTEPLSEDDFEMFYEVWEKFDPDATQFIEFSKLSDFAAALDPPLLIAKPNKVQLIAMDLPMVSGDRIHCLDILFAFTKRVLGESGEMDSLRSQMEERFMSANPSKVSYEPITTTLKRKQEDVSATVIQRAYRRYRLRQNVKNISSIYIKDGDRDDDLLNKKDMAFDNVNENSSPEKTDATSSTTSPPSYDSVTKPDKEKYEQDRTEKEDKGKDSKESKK

For `CC[C@H](C)[C@@H]1NC(=O)[C@@H]2CSSC[C@@H]3NC(=O)[C@H](C(C)C)NC(=O)[C@H](CC(C)C)NC(=O)[C@H](CC(N)=O)NC(=O)[C@@H]4CCCN4C(=O)[C@H](CCCNC(=N)N)NC(=O)[C@H](CSSC[C@H](NC(=O)[C@@H](N)CC(=O)O)C(=O)N[C@@H](CC(C)C)C(=O)NCC(=O)N[C@@H](C)C(=O)N[C@@H](CC(C)C)C(=O)N[C@@H](CCCNC(=N)N)C(=O)N[C@@H](CCCCN)C(=O)N2)NC(=O)[C@H](CSSC[C@@H](C(=O)N[C@@H](CCCCN)C(=O)N[C@@H](Cc2ccc(O)cc2)C(=O)N[C@H](C(=O)N[C@@H](Cc2ccccc2)C(=O)O)C(C)C)NC(=O)[C@H](Cc2c[nH]c4ccccc24)NC(=O)[C@H](CCCNC(=N)N)NC(=O)[C@H](Cc2c[nH]cn2)NC(=O)[C@H]([C@@H](C)O)NC(=O)[C@H](CCCNC(=N)N)NC(=O)[C@H](CO)NC3=O)NC(=O)[C@H](CCCCN)NC(=O)[C@H](CC(=O)O)NC(=O)[C@H](C)NC(=O)[C@H](CC(=O)O)NC(=O)[C@@H]2CCCN2C1=O` [compound 860] (H-DCLGALRKCIPDADKCCRPNLVCSRTHRWCKYVF-OH; disulfide 2-17, 9-23, 16-30), the IC50 is over 5 µM on hNav1.5, over 5 µM at hNav1.7 and 4.5 µM at hNav1.3.

`CC[C@H](C)[C@@H]1NC(=O)[C@@H]2CSSC[C@@H]3NC(=O)[C@H](C(C)C)NC(=O)[C@H](CC(C)C)NC(=O)[C@H](CC(N)=O)NC(=O)[C@@H]4CCCN4C(=O)[C@H](CCCNC(=N)N)NC(=O)[C@H](CSSC[C@H](NC(=O)[C@@H](N)CC(=O)O)C(=O)N[C@@H](CC(C)C)C(=O)NCC(=O)N[C@@H](C)C(=O)N[C@@H](CC(C)C)C(=O)N[C@@H](CCCNC(=N)N)C(=O)N[C@@H](CCCCN)C(=O)N2)NC(=O)[C@H](CSSC[C@@H](C(=O)N[C@@H](CCCCN)C(=O)N[C@@H](Cc2ccc(O)cc2)C(=O)N[C@H](C(=O)N[C@@H](Cc2ccccc2)C(=O)O)C(C)C)NC(=O)[C@H](Cc2c[nH]c4ccccc24)NC(=O)[C@H](CCCNC(=N)N)NC(=O)[C@H](Cc2c[nH]cn2)NC(=O)[C@H]([C@@H](C)O)NC(=O)[C@H](CCCNC(=N)N)NC(=O)[C@H](CO)NC3=O)NC(=O)[C@H](CCCCN)NC(=O)[C@H](CC(=O)O)NC(=O)[C@H](CC(=O)O)NC(=O)[C@H](CC(=O)O)NC(=O)[C@@H]2CCCN2C1=O` [compound 861] (H-DCLGALRKCIPDDDKCCRPNLVCSRTHRWCKYVF-OH; disulfide 2-17, 9-23, 16-30): the IC50 at hNav1.5, on hNav1.7 and on hNav1.3 was over 5 µM each time.

Turning to `CC[C@H](C)[C@@H]1NC(=O)[C@@H]2CSSC[C@@H]3NC(=O)[C@H](C(C)C)NC(=O)[C@H](CC(C)C)NC(=O)[C@H](CC(N)=O)NC(=O)[C@@H]4CCCN4C(=O)[C@H](CCCNC(=N)N)NC(=O)[C@H](CSSC[C@H](NC(=O)[C@@H](N)CC(=O)O)C(=O)N[C@@H](CC(C)C)C(=O)NCC(=O)N[C@@H](C)C(=O)N[C@@H](CC(C)C)C(=O)N[C@@H](CCCNC(=N)N)C(=O)N[C@@H](CCCCN)C(=O)N2)NC(=O)[C@H](CSSC[C@@H](C(=O)N[C@@H](CCCCN)C(=O)N[C@@H](Cc2ccc(O)cc2)C(=O)N[C@H](C(=O)N[C@@H](Cc2ccccc2)C(=O)O)C(C)C)NC(=O)[C@H](Cc2c[nH]c4ccccc24)NC(=O)[C@H](CCCNC(=N)N)NC(=O)[C@H](Cc2c[nH]cn2)NC(=O)[C@H]([C@@H](C)O)NC(=O)[C@H](CCCNC(=N)N)NC(=O)[C@H](CO)NC3=O)NC(=O)[C@H](CCCCN)NC(=O)[C@H](CC(=O)O)NC(=O)[C@H](CCC(=O)O)NC(=O)[C@H](CC(=O)O)NC(=O)[C@@H]2CCCN2C1=O` [compound 862] (H-DCLGALRKCIPDEDKCCRPNLVCSRTHRWCKYVF-OH; disulfide 2-17, 9-23, 16-30), the IC50 on hNav1.5, at hNav1.7 and on hNav1.3 was over 5 µM each time.

Turning to `CC[C@H](C)[C@@H]1NC(=O)[C@@H]2CSSC[C@@H]3NC(=O)[C@H](C(C)C)NC(=O)[C@H](CC(C)C)NC(=O)[C@H](CC(N)=O)NC(=O)[C@@H]4CCCN4C(=O)[C@H](CCCNC(=N)N)NC(=O)[C@H](CSSC[C@H](NC(=O)[C@@H](N)CC(=O)O)C(=O)N[C@@H](CC(C)C)C(=O)NCC(=O)N[C@@H](C)C(=O)N[C@@H](CC(C)C)C(=O)N[C@@H](CCCNC(=N)N)C(=O)N[C@@H](CCCCN)C(=O)N2)NC(=O)[C@H](CSSC[C@@H](C(=O)N[C@@H](CCCCN)C(=O)N[C@@H](Cc2ccc(O)cc2)C(=O)N[C@H](C(=O)N[C@@H](Cc2ccccc2)C(=O)O)C(C)C)NC(=O)[C@H](Cc2c[nH]c4ccccc24)NC(=O)[C@H](CCCNC(=N)N)NC(=O)[C@H](Cc2c[nH]cn2)NC(=O)[C@H]([C@@H](C)O)NC(=O)[C@H](CCCNC(=N)N)NC(=O)[C@H](CO)NC3=O)NC(=O)[C@H](CCCCN)NC(=O)[C@H](CC(=O)O)NC(=O)[C@H](Cc2ccccc2)NC(=O)[C@H](CC(=O)O)NC(=O)[C@@H]2CCCN2C1=O` [compound 863] (H-DCLGALRKCIPDFDKCCRPNLVCSRTHRWCKYVF-OH; disulfide 2-17, 9-23, 16-30), the IC50 on hNav1.5, on hNav1.7 and on hNav1.3 was over 5 µM each time.

For `CC[C@H](C)[C@@H]1NC(=O)[C@@H]2CSSC[C@@H]3NC(=O)[C@H](C(C)C)NC(=O)[C@H](CC(C)C)NC(=O)[C@H](CC(N)=O)NC(=O)[C@@H]4CCCN4C(=O)[C@H](CCCNC(=N)N)NC(=O)[C@H](CSSC[C@H](NC(=O)[C@@H](N)CC(=O)O)C(=O)N[C@@H](CC(C)C)C(=O)NCC(=O)N[C@@H](C)C(=O)N[C@@H](CC(C)C)C(=O)N[C@@H](CCCNC(=N)N)C(=O)N[C@@H](CCCCN)C(=O)N2)NC(=O)[C@H](CSSC[C@@H](C(=O)N[C@@H](CCCCN)C(=O)N[C@@H](Cc2ccc(O)cc2)C(=O)N[C@H](C(=O)N[C@@H](Cc2ccccc2)C(=O)O)C(C)C)NC(=O)[C@H](Cc2c[nH]c4ccccc24)NC(=O)[C@H](CCCNC(=N)N)NC(=O)[C@H](Cc2c[nH]cn2)NC(=O)[C@H]([C@@H](C)O)NC(=O)[C@H](CCCNC(=N)N)NC(=O)[C@H](CO)NC3=O)NC(=O)[C@H](CCCCN)NC(=O)[C@H](CC(=O)O)NC(=O)[C@H](Cc2c[nH]cn2)NC(=O)[C@H](CC(=O)O)NC(=O)[C@@H]2CCCN2C1=O` [compound 864] (H-DCLGALRKCIPDHDKCCRPNLVCSRTHRWCKYVF-OH; disulfide 2-17, 9-23, 16-30), the IC50 is over 5 µM at hNav1.5, over 5 µM on hNav1.7 and 3.9 µM at hNav1.3.

In the case of `CC[C@H](C)[C@@H]1NC(=O)[C@H](CC(=O)O)NC(=O)[C@@H]2CCCN2C(=O)[C@H]([C@@H](C)CC)NC(=O)[C@@H]2CSSC[C@@H]3NC(=O)[C@H](C(C)C)NC(=O)[C@H](CC(C)C)NC(=O)[C@H](CC(N)=O)NC(=O)[C@@H]4CCCN4C(=O)[C@H](CCCNC(=N)N)NC(=O)[C@H](CSSC[C@H](NC(=O)[C@@H](N)CC(=O)O)C(=O)N[C@@H](CC(C)C)C(=O)NCC(=O)N[C@@H](C)C(=O)N[C@@H](CC(C)C)C(=O)N[C@@H](CCCNC(=N)N)C(=O)N[C@@H](CCCCN)C(=O)N2)NC(=O)[C@H](CSSC[C@@H](C(=O)N[C@@H](CCCCN)C(=O)N[C@@H](Cc2ccc(O)cc2)C(=O)N[C@H](C(=O)N[C@@H](Cc2ccccc2)C(=O)O)C(C)C)NC(=O)[C@H](Cc2c[nH]c4ccccc24)NC(=O)[C@H](CCCNC(=N)N)NC(=O)[C@H](Cc2c[nH]cn2)NC(=O)[C@H]([C@@H](C)O)NC(=O)[C@H](CCCNC(=N)N)NC(=O)[C@H](CO)NC3=O)NC(=O)[C@H](CCCCN)NC(=O)[C@H](CC(=O)O)NC1=O` [compound 865] (H-DCLGALRKCIPDIDKCCRPNLVCSRTHRWCKYVF-OH; disulfide 2-17, 9-23, 16-30), the IC50 at hNav1.5, at hNav1.7 and at hNav1.3 was over 5 µM throughout.

Consider `CC[C@H](C)[C@@H]1NC(=O)[C@@H]2CSSC[C@@H]3NC(=O)[C@H](C(C)C)NC(=O)[C@H](CC(C)C)NC(=O)[C@H](CC(N)=O)NC(=O)[C@@H]4CCCN4C(=O)[C@H](CCCNC(=N)N)NC(=O)[C@H](CSSC[C@H](NC(=O)[C@@H](N)CC(=O)O)C(=O)N[C@@H](CC(C)C)C(=O)NCC(=O)N[C@@H](C)C(=O)N[C@@H](CC(C)C)C(=O)N[C@@H](CCCNC(=N)N)C(=O)N[C@@H](CCCCN)C(=O)N2)NC(=O)[C@H](CSSC[C@@H](C(=O)N[C@@H](CCCCN)C(=O)N[C@@H](Cc2ccc(O)cc2)C(=O)N[C@H](C(=O)N[C@@H](Cc2ccccc2)C(=O)O)C(C)C)NC(=O)[C@H](Cc2c[nH]c4ccccc24)NC(=O)[C@H](CCCNC(=N)N)NC(=O)[C@H](Cc2c[nH]cn2)NC(=O)[C@H]([C@@H](C)O)NC(=O)[C@H](CCCNC(=N)N)NC(=O)[C@H](CO)NC3=O)NC(=O)[C@H](CCCCN)NC(=O)[C@H](CC(=O)O)NC(=O)[C@H](CCCCN)NC(=O)[C@H](CC(=O)O)NC(=O)[C@@H]2CCCN2C1=O` [compound 866] (H-DCLGALRKCIPDKDKCCRPNLVCSRTHRWCKYVF-OH; disulfide 2-17, 9-23, 16-30), for which the IC50 on hNav1.5 is over 5 µM; on hNav1.7 it was over 5 µM; at hNav1.3 it was 2.3 µM.

On to `CC[C@H](C)[C@@H]1NC(=O)[C@@H]2CSSC[C@@H]3NC(=O)[C@H](C(C)C)NC(=O)[C@H](CC(C)C)NC(=O)[C@H](CC(N)=O)NC(=O)[C@@H]4CCCN4C(=O)[C@H](CCCNC(=N)N)NC(=O)[C@H](CSSC[C@H](NC(=O)[C@@H](N)CC(=O)O)C(=O)N[C@@H](CC(C)C)C(=O)NCC(=O)N[C@@H](C)C(=O)N[C@@H](CC(C)C)C(=O)N[C@@H](CCCNC(=N)N)C(=O)N[C@@H](CCCCN)C(=O)N2)NC(=O)[C@H](CSSC[C@@H](C(=O)N[C@@H](CCCCN)C(=O)N[C@@H](Cc2ccc(O)cc2)C(=O)N[C@H](C(=O)N[C@@H](Cc2ccccc2)C(=O)O)C(C)C)NC(=O)[C@H](Cc2c[nH]c4ccccc24)NC(=O)[C@H](CCCNC(=N)N)NC(=O)[C@H](Cc2c[nH]cn2)NC(=O)[C@H]([C@@H](C)O)NC(=O)[C@H](CCCNC(=N)N)NC(=O)[C@H](CO)NC3=O)NC(=O)[C@H](CCCCN)NC(=O)[C@H](CC(=O)O)NC(=O)[C@H](CC(C)C)NC(=O)[C@H](CC(=O)O)NC(=O)[C@@H]2CCCN2C1=O` [compound 867] (H-DCLGALRKCIPDLDKCCRPNLVCSRTHRWCKYVF-OH; disulfide 2-17, 9-23, 16-30), for which the IC50 at hNav1.5 was over 5 µM; on hNav1.7, over 5 µM; on hNav1.3 it was 4.9 µM.
